In US8080657B2, “Compounds of reverse turn mimetics and the use thereof” (Choongwae Pharma Corporation, priority 2008, dated 2011) one finds IC50 and GI50 data, which are given here for 1 compound.

Test [1] has as its target T1, cDNA-expressed human hepatic CYP3A4 (Homo sapiens, UniProt P08684).
T1 construct: purchased BD Gentest 456202
The experiment in a line: P450 CYP3A4 inhibitory activity screening (BFC substrate, fluorescence). It counts as biochemical. Conditions: P450 CYP3A4 inhibitory activity screening, fluorescent assay; read-out: CYP3A4 inhibition, IC50 (μM) fluorescent assay.

Test [2] relates to MV-4-11 cells. Nature of the test: Cell growth inhibition assay on AML cancer cells (CellTiter 96). The format is cell-based. The following applies: Homo sapiens, MV4-11; cell growth inhibition on AML cancer cells, MV-4-11; read-out: MV-4-11, GI50. How it is done: The lower GI50 value means the higher inhibition activity.
Cell Growth Inhibition Activity on AML Cancer Cells (Cell Growth Inhibition Assay)
Cell growth Inhibition assay was performed to investigate the rate of inhibition of cell proliferation by the test compounds. MV-4-11 (human, Acute Myeloid Leukemia cell line) cells were cultured in Iscove's modified Dulbecco's medium (IMDM) including 10% fetal bovine serum (FBS), 1× penicillin/streptomycin (10,000 units/ml Penicillin, […] Streptomycin in 0.85% NaCl). MV-4-11 cells were harvested with IMDM medium and 5×10^4 cells/well were transferred to each well of 96 well culture plates (Nunc, #167008). The test compounds were treated with the serial dilution and duplicated for each concentration. For the serial dilution, the test compounds were repeatedly diluted with the same volume of media onto 96-well assay block (costar, #3956). After the dilution, each compound was added to each well. The background absorbance was also measured during the test compounds treatment by adding the IMDM media in replacement of test compound to the negative control plate. The plates were incubated for 3 days (72 hours) at 37° C. in the humidified incubator containing 5% CO2. On the last day, 20 μL of CellTiter 96 Aqueous One Solution (Promega #G3581) was added to the culture in each well and the plates were incubated for a few hours at 37° C. in the humidified incubator containing 5% CO2. After the incubation, the absorbance of each cell was measured at 490 nm using an EnVision (Perkinelmer, USA). The GI50 values were calculated using a Prism 3.0 program.

T1 sequence (P08684 whole entry): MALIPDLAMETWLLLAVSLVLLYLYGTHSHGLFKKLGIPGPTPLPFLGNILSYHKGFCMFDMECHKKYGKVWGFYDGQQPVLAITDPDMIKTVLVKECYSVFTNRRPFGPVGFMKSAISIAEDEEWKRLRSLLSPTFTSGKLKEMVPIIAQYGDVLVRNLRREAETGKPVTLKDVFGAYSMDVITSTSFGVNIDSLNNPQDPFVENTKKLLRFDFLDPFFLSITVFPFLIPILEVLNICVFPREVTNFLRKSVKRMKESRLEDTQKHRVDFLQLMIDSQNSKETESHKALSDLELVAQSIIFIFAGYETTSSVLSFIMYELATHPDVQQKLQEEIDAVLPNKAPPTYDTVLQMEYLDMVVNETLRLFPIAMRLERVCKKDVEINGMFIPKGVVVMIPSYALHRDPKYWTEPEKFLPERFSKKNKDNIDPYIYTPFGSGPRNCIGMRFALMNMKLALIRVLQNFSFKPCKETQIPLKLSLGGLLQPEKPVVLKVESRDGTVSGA

As for `C=CCN1CC(=O)N2[C@@H](Cc3ccc(O)cc3)C(=O)N(Cc3cccc(C(=O)NCCOC)c3)C[C@@H]2N1C(=O)NCc1ccccc1` [compound 38], the IC50 in test [1] worked out at 34.6 µM. In addition, in test [2], the GI50 was 0.18 µM.
